Test results published in patent US9987321B2, “Use of flaxseed and flaxseed derivatives for treatment of neurological disorders and viral diseases” (The Trustees of the University of Pennsylvania, priority 2012, dated 2018).

How the values were obtained:
[1] = Reducing power antioxidant assay; settings: compared to SDG
Experimental: The antioxidant activity SDG was determined by assessing its reducing power, an activity related to its ability to reduce an oxidized atom or molecule and compared with that of the natural antioxidants ascorbic acid and alpha-tocopherol (Panel A).

CXCR4 = assay: Western blot of CXCR4 expression on MDM; assay type: cell-based
Experimental: (§1) The objective of this study was to elucidate the modulatory effects of flaxseed lignans on macrophage expression of coreceptors through western blotting.
Expression of HIV coreceptor CXCR4 on macrophage derived monocytes treated with SDG was evaluated. Following the same treatment protocol, MDM were treated with SDG for 0 and 6 hours. […] 25 μM to the 25 μM SDG treatment.

Nrf2 = assay: Endogenous antioxidant response expression by qRT-PCR and immunoblot; assay type: cell-based; settings: primary rat cortical neurons, SDG 50 μM, 2 or 48 hours
Experimental: Specifically, protein and RNA from primary rat cortical neurons treated with SDG at 50 μM or left untreated for 2 or 48 hours were analyzed for changes in expression of the endogenous antioxidant response by qRT-PCR and immunoblot.
Protein and RNA from primary rat cortical neurons treated with SDG at 50 μM or left untreated for 2 or 48 hours were analyzed for changes in expression of the endogenous antioxidant response by qRT-PCR and immunoblot.

[2] = at least 500 mg SDG/day for approximately 8 weeks; cited from earlier work
cortical rat neurons = assay: Neurotoxicity and oxidative stress (MAP2, DHE) from HIV-infected macrophage supernatants; assay type: cell-based
Experimental: Neurons (green) were pre-treated with 50 μM SDG 1 hour prior to exposure to HIV-infected macrophage supernatants (HIVMDM) at dilutions of 1:40 and 1:80. In the absence of SDG, there is marked reduction in MAP2 immunostaining (green) indicating neuronal damage and death (A). Labeling with dihydroethidium (red) indicates the presence of oxidative stress, which is apparent in HIVMDM treated cultures. Nuclei are labeled blue by DAPI. […] MAP2 levels are quantified in top graph (# p<0.01 compared to UT, * p<0.05 compared to respective HIV MDM). Oxidative stress (red-DHE) is quantified in bottom graph (# p<0.001, compared to HIVMDM1:40, p<0.05, compared to HIVMDM1:80, $ p<0.01 compared with UT.
Primary rat neuroglial cultures (FIG. 10, Panel A) and primary rat neuronal cultures (FIG. 10, Panel B) were treated with Supernatants from HIV-Infected macrophages (Jago) or Mock-infected macrophages (Mock) for 24 hours in the presence or absence of 25 or 50 μM SDG given 60 minutes prior to addition of the HIVMDM. Prior to fixation, cells were incubated with Dihydroethidium (DHE-red) for 30 minutes. Following fixation cells were stained for the neuronal specific marker MAP2 (green) and DAPI (blue). Representative images for each treatment are shown. DHE Fluorescence intensity was quantified from 6 fields for 3 slides per treatment, averaged, and normalized to the area of DAPI. Graphs of the average DHE staining intensity/DAPI area are plotted for each treatment group. The p values were generated using student's two-tailed t-test for equal variance. Bars on graphs represent median values of quantification by ImageJ algorithm. *P<0.05 vs Untreated (UT)-control group and Mock-control group; #P<0.05 vs Jago 1:40 treatment group. The results were obtained from at least three independent experiments.

rat neuronal cultures = assay: MTT viability, indirect treatment (media from SDG-treated macrophages); assay type: cell-based; settings: media from HIV-1 or Mock infected macrophages treated with SDG, 24 hours
Experimental: We performed a MTT (3-(4,5-dimethylthiazol-2-yl)-2,5-diphenyltetrazolium bromide) assay to measure the viability of cells through the production of insoluble formazan. […]. In these indirect studies media from HIV-1 infected or Mock infected macrophages treated with SDG was applied to neuronal cultures for 24 hours. Afterward cell viability was determined by the MTT assay which […] and is an indicator of mitochondrial activity. […] This study is a clear indicator of the non-neurotoxic effects of SDG in vitro.

[3] = SDG by oral gavage; cited from earlier work
CCR5 = assay: Western blot of CCR5 expression on MDM; assay type: cell-based; settings: SDG for 0 and 6 hours, time-dependent
Experimental: as §1
Expression of HIV co-receptor CCR5 on macrophage derived monocytes treated with SDG was evaluated. Following the same treatment protocol, MDM were treated with SDG for 0 and 6 hours.

HIV-1 jago [4] = assay: HIV replication in monocyte-derived macrophages (RT activity, p24); assay type: cell-based; settings: for viral replication as indicated by RT activity / viral replication as indicated by p24 concentrations: primary human MDMs, 9 days post-infection, ritonavir 0.1 μM, SDG 50 μM
Experimental: Primary human MDMs were infected with an HIV isolated from the CSF of a patient with confirmed HAND yielding robust reverse transcriptase activity (A) and p24 concentrations (B) after 9 days post-infection. […] Results have been confirmed in 2 distinct donors, 1 donor is shown. Three technical replicates are analyzed for RT assays (n=3, * p<0.0001).
(§2) PBMCs can be prepared from laboratory donors. PBMCs are activated with […] phytohemagglutinin for 3 days, and infected with HIV-1 jago, a strain of HIV1 isolated from the CSF of a patient with HAD. On the day of infection, cultures is treated with SDG over a range of doses (0.1, 1, 10, 100 μM SDG), vehicle, or left untreated. Viral replication is assessed by p24 ELISA at 3, 6, 9, 12 and 15 days post-infection. Cell viability of infected PBMCs can be monitored by trypan blue exclusion and p24 levels are normalized to the number of viable cells. The experiment is repeated in 3 donors. MDMs can be prepared as described previously and infected with HIV-1 jago. On the day of inoculation with HIV-1 jago cultures can be treated with 0.1, 1, 10 and 100 μM SDG, vehicle or left untreated. Viral replication is assessed on days 3, 6, 9, 12, and 15 by p24 ELISA. Cell viability is determined by trypan blue exclusion and p24 levels is normalized to the number of viable cells. The experiment is replicated in 3 donors.
To assess this effect, primary peripheral blood monocytes were harvested from healthy donors and differentiated them into macrophages in vitro. Monocytes were infected with the primary HIV isolate, jago. One day after infection, macrophages were treated with 25 μM or 50 μM SDG, the antiretroviral compound ritonavir (0.1 μM RIT), SDG and ritonavir together, the ritonavir vehicle, DMSO, or with no additional treatment. Supernatant from these macrophages was harvested 3, 6, 9, 12, and 15 days post infection and assayed for HIV reverse transcriptase activity (FIG. 5A, bar graph and FIG. 5B, Line graph).

Nrf2/ARE = Nrf2/ARE activation in non-neuronal cell types; assay type: cell-based; settings: lung epithelial, endothelial and fibroblasts
[5] = system: rat cortical neuroglial cultures; assay: MTT viability, direct SDG treatment; assay type: cell-based; settings: 24 hours with SDG
Experimental: In order to assess the effects on SDG in terms of mitochondrial respiration as an indicator of viability, an MTT assay was performed with rat cortical neuroglial cultures that were treated for 24 hours with SDG.

[6] = system: primary rat cortical neurons; assay: MAP2 cell-based ELISA of neuronal death and damage after ART compounds
Experimental: (§3) Relative neuronal damage as indicated by MAP2 cell-based ELISA in neurons treated with the indicated concentrations of ART compounds, ritonavir (RIT), Saquinavir (Sag), and Zidovudine (AZT). Cells were treated for 72 hours with ritonavir (10 μM or 25 μM), ritonavir (10 μM)+Saquinivir (1 μM), AZT (25 μM)+ritonavir+Saquinavir. One hour before and two hours after cART drug treatment, half of the wells of a 96 well plate of neuroglial cultures were also treated with secoisolariciresinol diglucoside (SDG) (25 μM, 50 μM, or 100 μM) where indicated. 72 hours later, a MAP2 cell-based ELISA assay was used to quantify neuronal death and damage. Untreated cultures in addition to vehicle (0.08% DMSO) treated cultures with and without SDG were used as controls. The value for untreated cultures was set to 100%, and SDG and cART treated bands are expressed as a percent change from untreated.
as §3, with “Cells” for “Relative neuronal damage as indicated by MAP2 cell-based ELISA in neurons treated with the indicated concentrations of ART compounds, ritonavir (RIT), Saquinavir (Sag), and Zidovudine (AZT). Cells”, “SDG” for “secoisolariciresinol diglucoside (SDG)”, “μM).” for “μM) where indicated.”

[7] = DPPH free radical scavenging activity; settings: compared to ascorbic acid and alpha-tocopherol
[8] = system: nrf2-regulated protective enzymes; assay: qRT-PCR of antioxidant enzyme gene expression in brain tissues after oral SDG; assay type: in vivo, mice
Experimental: Indeed, the 1.0 mg dose was associated with a near 2-fold boost of hemeoxygenase 1 expression (HO-1) and quinone oxidoreductase 1 (NQO-1) expression in brain tissues (FIG. 14, Panel B).

HIV-1 jago [9] = assay: HIV replication in PBMCs (p24 ELISA); assay type: cell-based; settings: dose dependent manner; 0.1, 1, 10, 100 μM SDG
Experimental: as §2

[10] = system: brain derived neurotrophic factor (BDNF); settings: SDG by oral gavage; cited from earlier work
[11] = 50 μM SDG 1 hour prior to HIVMDM 1:40 and 1:80
[12] = 1.0 mg SDG oral gavage once daily for 4 days, 4 hours post final feeding

Cc1c(C)c2c(c(C)c1O)CC[C@@](C)(CCC[C@H](C)CCC[C@H](C)CCCC(C)C)O2 [A-toc, alpha-tocopherol]
concentration needed for half-maximal response (EC50) in reducing power, relative to SDG [1]: ~3 fold

O=C1O[C@H]([C@@H](O)CO)C(O)=C1O [AA, ascorbic acid]
concentration needed for half-maximal response (EC50) in reducing power, relative to SDG [1]: ~3 fold

COc1cc(C[C@@H](CO[C@@H]2O[C@H](CO)[C@@H](O)[C@H](O)[C@H]2O)[C@H](CO[C@@H]2O[C@H](CO)[C@@H](O)[C@H](O)[C@H]2O)Cc2ccc(O)c(OC)c2)ccc1O [SDG, secoisolariciresinol diglucoside]
HIV coreceptor CXCR4 expression on MDM, dose dependence (CXCR4; 12 hour time point, 6. 25 μM to 25 μM SDG): dose-dependent decrease
HIV coreceptor CXCR4 expression on MDM (CXCR4; between the 0 and 6 hour time points, time-dependent): significant decrease
induction of Nrf2 and its targets HO1, NQO1, GST1 (Nrf2): induced Nrf2 in neurons, as well as its prominent targets: HO1, NQO1, and GST1
effect on cardiovascular risk factors in humans [2]: positive effect
neuron loss (MAP2 immunostaining) (cortical rat neurons; [11]): protected against neuron loss
oxidative stress by DHE (cortical rat neurons; [11]): reduced accumulation of oxidative stress
protection from HIV-stimulated macrophage-induced neurotoxicity (cortical rat neurons; 25 or 50 μM SDG 60 minutes prior to HIVMDM, 24 hours, presence or absence of glia): protects neurons
DHE staining (free radical production) in HIV-Jago-treated neurons (cortical rat neurons; presence and absence of glia): reduced DHE staining
neuronal cell viability (MTT), indirect treatment (rat neuronal cultures): no change in neuronal cell viability
chronic stress as measured by immobility time induced by tail suspension stress [3]: decreased chronic stress
HIV co-receptor CCR5 expression on MDM (CCR5): significant decrease
effect of SDG on ritonavir inhibition of HIV replication (reverse transcriptase activity) (HIV-1 jago [4]; 25 or 50 μM SDG with 0.1 μM ritonavir, 3-15 days post infection): did not block the ability of ritonavir to inhibit HIV replication
HIV replication (reverse transcriptase activity), SDG without ritonavir (HIV-1 jago [4]; 25 or 50 μM SDG, 3-15 days post infection): blocked HIV replication
viral replication in HIV-infected macrophages compared with ritonavir (HIV-1 jago [4]; FIG. 2): reduced viral replication to levels akin to the HIV protease inhibitor, ritonavir
HIV replication in MDMs (HIV-1 jago [4]; dose dependent manner, 0.1, 1, 10, 100 μM SDG): attenuates HIV replication
viral replication as indicated by RT activity (HIV-1 jago [4]): attenuated viral replication
viral replication as indicated by p24 concentrations (HIV-1 jago [4]): attenuated viral replication
activation of Nrf2/ARE, inducing NQO1 and HO1 (Nrf2/ARE): activates the Nrf2/ARE
neuronal cell viability (MTT), direct treatment [5]: no change in neuronal cell viability
attenuation of neuronal damage in response to ART compounds ([6]; 25 μM SDG 1 hour prior to ART compounds alone or in combination): significantly attenuated neuronal damage
reduction of ART-induced neuronal damage by combination therapy ([6]; SDG at 25 and 50 μM): reduced ART-induced neuronal damage
DPPH free radical scavenging activity [7]: far superior antioxidant activity
hemeoxygenase 1 (HO-1) expression in brain tissues [8, 12]: ~2 fold
quinone oxidoreductase 1 (NQO-1) expression in brain tissues [8, 12]: ~2 fold
crossing of the blood-brain barrier ([8]; SDG given orally to mice): crosses the blood-brain barrier
HIV replication in PBMCs (HIV-1 jago [9]): attenuates HIV replication
cortex levels of brain derived neurotrophic factor (BDNF) [10]: increase

CC(C)c1nc(CN(C)C(=O)N[C@H](C(=O)N[C@@H](Cc2ccccc2)C[C@H](O)[C@H](Cc2ccccc2)NC(=O)OCc2cncs2)C(C)C)cs1 [ritonavir, reference compound]
viral replication as indicated by RT activity (HIV-1 jago [4]): attenuated viral replication
viral replication as indicated by p24 concentrations (HIV-1 jago [4]): attenuated viral replication

CC(C)(C)NC(=O)[C@@H]1C[C@@H]2CCCC[C@@H]2CN1C[C@@H](O)[C@H](Cc1ccccc1)NC(=O)[C@H](CC(N)=O)NC(=O)c1ccc2ccccc2n1 [saquinavir, reference compound]
neuronal damage as indicated by loss of MAP2 staining ([6]; ART compounds alone and in combinations, 72 hours): significant neuronal damage
